Results from ChEMBL document CHEMBL3991601, “The target landscape of clinical kinase drugs” (Science, 2017).
Calls of active or inactive are those of the source. For most assays here, no stated cut-off is given here; in the data, actives have a measured Kd and inactives only a lower limit.

Each compound was assayed against T1, EKC/KEOPS complex subunit TP53RK (Homo sapiens, UniProt Q96S44).
T1 sequence (Q96S44 whole entry): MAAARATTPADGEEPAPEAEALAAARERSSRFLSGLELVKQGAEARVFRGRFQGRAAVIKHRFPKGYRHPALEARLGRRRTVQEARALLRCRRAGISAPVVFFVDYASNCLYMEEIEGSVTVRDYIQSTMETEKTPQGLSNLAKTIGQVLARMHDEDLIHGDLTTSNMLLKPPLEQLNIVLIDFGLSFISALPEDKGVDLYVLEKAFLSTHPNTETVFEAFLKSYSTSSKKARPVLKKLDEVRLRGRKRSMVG
In the case of CN1N=C(N)c2cn([C@@H]3O[C@H](COP(=O)(O)O)[C@@H](O)[C@H]3O)c3ncnc1c23 [TRICIRIBINE PHOSPHATE], the Kd is reported as > 30 µM (inactive). CC(C)Nc1cc(-c2c[nH]c(C(=O)N[C@H](CO)c3cccc(Cl)c3)c2)c(Cl)cn1 [ULIXERTINIB] was tested, and the Kd was > 30 µM (inactive). CCCS(=O)(=O)Nc1ccc(F)c(C(=O)c2c[nH]c3ncc(-c4ccc(Cl)cc4)cc23)c1F [VEMURAFENIB] was tested, and the Kd was > 30 µM (inactive). With CC[C@@H]1C(=O)N(C)c2cnc(Nc3ccc(C(=O)N[C@H]4CC[C@H](N5CCN(CC6CC6)CC5)CC4)cc3OC)nc2N1C(C)C [VOLASERTIB] the Kd was > 30 µM (inactive). In the case of O=C(Nc1ccc(-c2ccnc(Nc3ccc(N4CCOCC4)cc3)n2)cc1)C1CCCN1 (stereo not given) [XL-019], the Kd is reported as > 30 µM (inactive).

The compounds below were run against GTP-binding protein 4 (Homo sapiens, UniProt Q9BZE4).
In the case of CN1N=C(N)c2cn([C@@H]3O[C@H](COP(=O)(O)O)[C@@H](O)[C@H]3O)c3ncnc1c23 [TRICIRIBINE PHOSPHATE], the Kd is reported as > 30 µM (inactive). In the case of CC(C)Nc1cc(-c2c[nH]c(C(=O)N[C@H](CO)c3cccc(Cl)c3)c2)c(Cl)cn1 [ULIXERTINIB], the Kd is reported as > 30 µM (inactive). For CCCS(=O)(=O)Nc1ccc(F)c(C(=O)c2c[nH]c3ncc(-c4ccc(Cl)cc4)cc23)c1F [VEMURAFENIB], the Kd was > 30 µM (inactive). For CC[C@@H]1C(=O)N(C)c2cnc(Nc3ccc(C(=O)N[C@H]4CC[C@H](N5CCN(CC6CC6)CC5)CC4)cc3OC)nc2N1C(C)C [VOLASERTIB], the Kd was > 30 µM (inactive). In the case of O=C(Nc1ccc(-c2ccnc(Nc3ccc(N4CCOCC4)cc3)n2)cc1)C1CCCN1 (stereo not given) [XL-019], the Kd is reported as > 30 µM (inactive).

These compounds were tested against Ephrin type-A receptor 5 (Homo sapiens, UniProt P54756).
Ephrin type-A receptor 5, sequence (P54756 whole entry): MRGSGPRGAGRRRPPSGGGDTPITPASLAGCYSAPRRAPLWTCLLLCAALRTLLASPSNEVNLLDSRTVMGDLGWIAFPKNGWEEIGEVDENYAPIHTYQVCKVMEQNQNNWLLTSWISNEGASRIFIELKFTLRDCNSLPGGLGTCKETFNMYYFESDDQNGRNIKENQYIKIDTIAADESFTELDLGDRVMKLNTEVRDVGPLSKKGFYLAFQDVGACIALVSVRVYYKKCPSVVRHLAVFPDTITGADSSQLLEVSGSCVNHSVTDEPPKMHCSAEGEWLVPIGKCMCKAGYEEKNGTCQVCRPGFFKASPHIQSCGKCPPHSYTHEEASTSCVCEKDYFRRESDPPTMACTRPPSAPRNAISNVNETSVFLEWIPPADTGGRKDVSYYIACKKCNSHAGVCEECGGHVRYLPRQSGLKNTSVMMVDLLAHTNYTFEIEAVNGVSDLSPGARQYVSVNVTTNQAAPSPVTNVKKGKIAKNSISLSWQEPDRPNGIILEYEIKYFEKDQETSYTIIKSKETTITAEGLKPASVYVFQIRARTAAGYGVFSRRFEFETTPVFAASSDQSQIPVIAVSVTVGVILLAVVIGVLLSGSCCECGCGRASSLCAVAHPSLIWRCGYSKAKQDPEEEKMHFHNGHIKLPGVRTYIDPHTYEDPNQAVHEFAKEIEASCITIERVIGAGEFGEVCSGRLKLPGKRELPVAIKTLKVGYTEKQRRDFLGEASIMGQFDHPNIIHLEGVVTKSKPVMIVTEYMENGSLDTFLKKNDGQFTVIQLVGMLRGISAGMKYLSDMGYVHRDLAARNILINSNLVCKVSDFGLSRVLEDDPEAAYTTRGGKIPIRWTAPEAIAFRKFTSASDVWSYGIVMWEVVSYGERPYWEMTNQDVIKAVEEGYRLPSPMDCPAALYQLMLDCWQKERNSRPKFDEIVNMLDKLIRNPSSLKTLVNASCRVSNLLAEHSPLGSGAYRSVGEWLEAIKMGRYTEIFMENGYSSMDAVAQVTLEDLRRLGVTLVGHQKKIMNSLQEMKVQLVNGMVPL
In the case of CN1N=C(N)c2cn([C@@H]3O[C@H](COP(=O)(O)O)[C@@H](O)[C@H]3O)c3ncnc1c23 [TRICIRIBINE PHOSPHATE], the Kd is reported as > 30 µM (inactive). With CC(C)Nc1cc(-c2c[nH]c(C(=O)N[C@H](CO)c3cccc(Cl)c3)c2)c(Cl)cn1 [ULIXERTINIB] the Kd was > 30 µM (inactive). CCCS(=O)(=O)Nc1ccc(F)c(C(=O)c2c[nH]c3ncc(-c4ccc(Cl)cc4)cc23)c1F [VEMURAFENIB] was tested, and the Kd was > 30 µM (inactive). For CC[C@@H]1C(=O)N(C)c2cnc(Nc3ccc(C(=O)N[C@H]4CC[C@H](N5CCN(CC6CC6)CC5)CC4)cc3OC)nc2N1C(C)C [VOLASERTIB], the Kd was > 30 µM (inactive). With O=C(Nc1ccc(-c2ccnc(Nc3ccc(N4CCOCC4)cc3)n2)cc1)C1CCCN1 (stereo not given) [XL-019] the Kd was > 30 µM (inactive).

The compounds below were run against T2, Dual specificity mitogen-activated protein kinase kinase 5 (Homo sapiens, UniProt Q13163).
T2 sequence (Q13163 whole entry): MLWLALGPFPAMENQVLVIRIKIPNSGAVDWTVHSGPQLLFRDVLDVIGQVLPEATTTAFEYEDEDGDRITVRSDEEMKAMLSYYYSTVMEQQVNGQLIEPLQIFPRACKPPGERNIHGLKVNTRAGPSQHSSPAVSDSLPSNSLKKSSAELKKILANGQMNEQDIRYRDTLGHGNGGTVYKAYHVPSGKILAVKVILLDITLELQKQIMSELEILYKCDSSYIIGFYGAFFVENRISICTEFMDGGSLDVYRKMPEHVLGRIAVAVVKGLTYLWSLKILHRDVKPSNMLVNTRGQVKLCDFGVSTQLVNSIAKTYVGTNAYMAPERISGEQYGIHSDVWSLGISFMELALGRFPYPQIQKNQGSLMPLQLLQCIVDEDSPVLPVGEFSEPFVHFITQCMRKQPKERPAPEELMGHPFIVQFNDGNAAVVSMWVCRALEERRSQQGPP
CN1N=C(N)c2cn([C@@H]3O[C@H](COP(=O)(O)O)[C@@H](O)[C@H]3O)c3ncnc1c23 [TRICIRIBINE PHOSPHATE] was tested, and the Kd was > 30 µM (inactive). In the case of CC(C)Nc1cc(-c2c[nH]c(C(=O)N[C@H](CO)c3cccc(Cl)c3)c2)c(Cl)cn1 [ULIXERTINIB], the Kd is reported as > 30 µM (inactive). With CCCS(=O)(=O)Nc1ccc(F)c(C(=O)c2c[nH]c3ncc(-c4ccc(Cl)cc4)cc23)c1F [VEMURAFENIB] the Kd was 0.734 µM (active). In the case of CC[C@@H]1C(=O)N(C)c2cnc(Nc3ccc(C(=O)N[C@H]4CC[C@H](N5CCN(CC6CC6)CC5)CC4)cc3OC)nc2N1C(C)C [VOLASERTIB], the Kd is reported as > 30 µM (inactive). In the case of O=C(Nc1ccc(-c2ccnc(Nc3ccc(N4CCOCC4)cc3)n2)cc1)C1CCCN1 (stereo not given) [XL-019], the Kd is reported as > 30 µM (inactive).

Each compound was assayed against T3, Serine/threonine-protein kinase 3 (Homo sapiens, UniProt Q13188).
T3 sequence (Q13188 whole entry): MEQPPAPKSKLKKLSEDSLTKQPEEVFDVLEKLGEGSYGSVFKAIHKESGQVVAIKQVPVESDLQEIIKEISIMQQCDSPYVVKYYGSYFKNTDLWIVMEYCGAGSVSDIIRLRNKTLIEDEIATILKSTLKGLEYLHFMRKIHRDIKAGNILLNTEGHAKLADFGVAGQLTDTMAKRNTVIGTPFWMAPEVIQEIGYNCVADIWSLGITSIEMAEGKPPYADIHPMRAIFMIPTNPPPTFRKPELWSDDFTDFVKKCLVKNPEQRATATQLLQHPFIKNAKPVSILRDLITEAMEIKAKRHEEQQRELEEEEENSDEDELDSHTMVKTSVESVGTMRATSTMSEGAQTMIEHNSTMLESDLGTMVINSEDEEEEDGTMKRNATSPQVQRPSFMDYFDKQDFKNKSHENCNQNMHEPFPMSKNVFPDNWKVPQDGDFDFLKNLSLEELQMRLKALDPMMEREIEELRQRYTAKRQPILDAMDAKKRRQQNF
With CN1N=C(N)c2cn([C@@H]3O[C@H](COP(=O)(O)O)[C@@H](O)[C@H]3O)c3ncnc1c23 [TRICIRIBINE PHOSPHATE] the Kd was > 30 µM (inactive). With CC(C)Nc1cc(-c2c[nH]c(C(=O)N[C@H](CO)c3cccc(Cl)c3)c2)c(Cl)cn1 [ULIXERTINIB] the Kd was > 30 µM (inactive). With CCCS(=O)(=O)Nc1ccc(F)c(C(=O)c2c[nH]c3ncc(-c4ccc(Cl)cc4)cc23)c1F [VEMURAFENIB] the Kd was > 30 µM (inactive). In the case of CC[C@@H]1C(=O)N(C)c2cnc(Nc3ccc(C(=O)N[C@H]4CC[C@H](N5CCN(CC6CC6)CC5)CC4)cc3OC)nc2N1C(C)C [VOLASERTIB], the Kd is reported as > 30 µM (inactive). O=C(Nc1ccc(-c2ccnc(Nc3ccc(N4CCOCC4)cc3)n2)cc1)C1CCCN1 (stereo not given) [XL-019] was tested, and the Kd was > 30 µM (inactive).

What follows are compounds tested against T4, Serine/threonine-protein kinase ULK3 (Homo sapiens, UniProt Q6PHR2).
T4 sequence (Q6PHR2 whole entry): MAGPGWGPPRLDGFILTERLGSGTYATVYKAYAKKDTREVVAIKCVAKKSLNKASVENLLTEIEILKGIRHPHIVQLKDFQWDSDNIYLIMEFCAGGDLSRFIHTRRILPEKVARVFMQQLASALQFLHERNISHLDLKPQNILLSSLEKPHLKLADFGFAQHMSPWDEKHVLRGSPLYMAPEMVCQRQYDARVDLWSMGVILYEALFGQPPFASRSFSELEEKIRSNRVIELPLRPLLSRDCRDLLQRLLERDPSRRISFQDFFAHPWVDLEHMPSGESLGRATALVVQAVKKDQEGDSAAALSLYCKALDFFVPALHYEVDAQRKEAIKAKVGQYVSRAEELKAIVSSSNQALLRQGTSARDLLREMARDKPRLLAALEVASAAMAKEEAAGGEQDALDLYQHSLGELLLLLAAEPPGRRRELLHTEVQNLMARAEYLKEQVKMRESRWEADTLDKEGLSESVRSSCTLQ
CN1N=C(N)c2cn([C@@H]3O[C@H](COP(=O)(O)O)[C@@H](O)[C@H]3O)c3ncnc1c23 [TRICIRIBINE PHOSPHATE] was tested, and the Kd was > 30 µM (inactive). In the case of CC(C)Nc1cc(-c2c[nH]c(C(=O)N[C@H](CO)c3cccc(Cl)c3)c2)c(Cl)cn1 [ULIXERTINIB], the Kd is reported as > 30 µM (inactive). For CCCS(=O)(=O)Nc1ccc(F)c(C(=O)c2c[nH]c3ncc(-c4ccc(Cl)cc4)cc23)c1F [VEMURAFENIB], the Kd was > 30 µM (inactive). For CC[C@@H]1C(=O)N(C)c2cnc(Nc3ccc(C(=O)N[C@H]4CC[C@H](N5CCN(CC6CC6)CC5)CC4)cc3OC)nc2N1C(C)C [VOLASERTIB], the Kd was > 30 µM (inactive). In the case of O=C(Nc1ccc(-c2ccnc(Nc3ccc(N4CCOCC4)cc3)n2)cc1)C1CCCN1 (stereo not given) [XL-019], the Kd is reported as 0.297 µM (active).

The compounds below were run against T5, Serine/threonine-protein kinase Nek3 (Homo sapiens, UniProt P51956).
T5 sequence (P51956 whole entry): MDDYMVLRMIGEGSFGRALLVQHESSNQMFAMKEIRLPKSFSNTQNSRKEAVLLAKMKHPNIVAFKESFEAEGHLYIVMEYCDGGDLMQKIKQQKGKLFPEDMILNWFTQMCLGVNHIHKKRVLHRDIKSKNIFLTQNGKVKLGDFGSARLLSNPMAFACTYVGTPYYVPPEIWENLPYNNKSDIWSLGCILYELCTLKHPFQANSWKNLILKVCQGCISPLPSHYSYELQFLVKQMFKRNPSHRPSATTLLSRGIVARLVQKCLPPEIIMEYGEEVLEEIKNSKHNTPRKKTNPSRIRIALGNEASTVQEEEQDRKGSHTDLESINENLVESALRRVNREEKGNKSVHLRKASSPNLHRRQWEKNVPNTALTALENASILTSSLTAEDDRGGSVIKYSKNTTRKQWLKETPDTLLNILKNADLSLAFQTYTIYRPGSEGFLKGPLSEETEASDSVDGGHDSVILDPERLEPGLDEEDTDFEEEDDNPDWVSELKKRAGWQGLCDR
In the case of CN1N=C(N)c2cn([C@@H]3O[C@H](COP(=O)(O)O)[C@@H](O)[C@H]3O)c3ncnc1c23 [TRICIRIBINE PHOSPHATE], the Kd is reported as > 30 µM (inactive). In the case of CC(C)Nc1cc(-c2c[nH]c(C(=O)N[C@H](CO)c3cccc(Cl)c3)c2)c(Cl)cn1 [ULIXERTINIB], the Kd is reported as > 30 µM (inactive). CCCS(=O)(=O)Nc1ccc(F)c(C(=O)c2c[nH]c3ncc(-c4ccc(Cl)cc4)cc23)c1F [VEMURAFENIB] was tested, and the Kd was > 30 µM (inactive). With CC[C@@H]1C(=O)N(C)c2cnc(Nc3ccc(C(=O)N[C@H]4CC[C@H](N5CCN(CC6CC6)CC5)CC4)cc3OC)nc2N1C(C)C [VOLASERTIB] the Kd was 2.96 µM (active). With O=C(Nc1ccc(-c2ccnc(Nc3ccc(N4CCOCC4)cc3)n2)cc1)C1CCCN1 (stereo not given) [XL-019] the Kd was 0.353 µM (active).

The compounds below were run against Tyrosine-protein kinase ABL2 (Homo sapiens, UniProt P42684).
Tyrosine-protein kinase ABL2, sequence (P42684 whole entry): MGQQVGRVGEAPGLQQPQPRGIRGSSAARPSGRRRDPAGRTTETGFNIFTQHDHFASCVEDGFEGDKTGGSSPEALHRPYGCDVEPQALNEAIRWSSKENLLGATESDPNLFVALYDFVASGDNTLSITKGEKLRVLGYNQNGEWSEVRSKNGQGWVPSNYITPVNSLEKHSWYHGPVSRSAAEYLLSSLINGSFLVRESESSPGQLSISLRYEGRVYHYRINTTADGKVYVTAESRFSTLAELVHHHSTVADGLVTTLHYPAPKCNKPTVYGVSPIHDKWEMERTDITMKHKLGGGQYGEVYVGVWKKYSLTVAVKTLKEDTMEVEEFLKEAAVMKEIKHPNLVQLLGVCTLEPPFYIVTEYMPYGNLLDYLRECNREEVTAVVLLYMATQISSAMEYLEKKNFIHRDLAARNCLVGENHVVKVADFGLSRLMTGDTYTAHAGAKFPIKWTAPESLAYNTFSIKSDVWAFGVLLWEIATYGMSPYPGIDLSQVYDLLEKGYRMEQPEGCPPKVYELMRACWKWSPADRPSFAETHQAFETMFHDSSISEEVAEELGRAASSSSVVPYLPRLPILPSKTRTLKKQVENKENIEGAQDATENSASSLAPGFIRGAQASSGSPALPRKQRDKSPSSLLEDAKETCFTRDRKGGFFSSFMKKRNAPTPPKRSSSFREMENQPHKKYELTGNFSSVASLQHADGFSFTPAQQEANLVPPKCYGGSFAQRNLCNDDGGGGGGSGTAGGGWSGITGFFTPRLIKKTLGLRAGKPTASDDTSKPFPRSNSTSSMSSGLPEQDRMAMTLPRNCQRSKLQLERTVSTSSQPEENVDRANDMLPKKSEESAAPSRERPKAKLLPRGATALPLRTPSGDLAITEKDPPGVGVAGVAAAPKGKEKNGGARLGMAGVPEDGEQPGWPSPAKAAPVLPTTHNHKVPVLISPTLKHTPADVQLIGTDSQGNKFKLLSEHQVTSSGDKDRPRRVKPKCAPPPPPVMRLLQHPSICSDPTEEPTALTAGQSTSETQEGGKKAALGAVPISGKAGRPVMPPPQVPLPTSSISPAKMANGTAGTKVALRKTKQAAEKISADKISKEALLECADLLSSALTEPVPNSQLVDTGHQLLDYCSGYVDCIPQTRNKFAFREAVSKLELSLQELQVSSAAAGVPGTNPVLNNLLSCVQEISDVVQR
For CN1N=C(N)c2cn([C@@H]3O[C@H](COP(=O)(O)O)[C@@H](O)[C@H]3O)c3ncnc1c23 [TRICIRIBINE PHOSPHATE], the Kd was > 30 µM (inactive). In the case of CC(C)Nc1cc(-c2c[nH]c(C(=O)N[C@H](CO)c3cccc(Cl)c3)c2)c(Cl)cn1 [ULIXERTINIB], the Kd is reported as > 30 µM (inactive). CCCS(=O)(=O)Nc1ccc(F)c(C(=O)c2c[nH]c3ncc(-c4ccc(Cl)cc4)cc23)c1F [VEMURAFENIB] was tested, and the Kd was > 30 µM (inactive). CC[C@@H]1C(=O)N(C)c2cnc(Nc3ccc(C(=O)N[C@H]4CC[C@H](N5CCN(CC6CC6)CC5)CC4)cc3OC)nc2N1C(C)C [VOLASERTIB] was tested, and the Kd was > 30 µM (inactive). For O=C(Nc1ccc(-c2ccnc(Nc3ccc(N4CCOCC4)cc3)n2)cc1)C1CCCN1 (stereo not given) [XL-019], the Kd was > 30 µM (inactive).
